Source: patent US20220227720A1, “DHODH INHIBITORS AND THEIR USE AS ANTIVIRAL AGENTS” (priority 2019, published 2022)
Converted amounts (≈) assume the structure as drawn. Read-outs that look alike come from different tables or passages of the source.

Columns and labels:
TOSV = assay: microbe, parasite or virus in culture; assay type: cell-based, Toscana virus
HAZV = assay: microbe, parasite or virus in culture; assay type: cell-based; conditions: Hazara virus, Vero C1008, read-out: IC50 HAZV
TAHV = assay: microbe, parasite or virus in culture; assay type: cell-based; conditions: Tahyna virus, Vero C1008, read-out: IC50 TAHV
RVFV [1] = assay: microbe, parasite or virus in culture; assay type: cell-based; conditions: Rift Valley fever virus, Vero C1008, read-out: IC50 RVFV
YFV [2] = assay: microbe, parasite or virus in culture; assay type: cell-based; conditions: Yellow fever virus, Vero C1008, read-out: IC50 YFV
DENV = assay: Virus yield reduction assay, DENV in Vero E6 cells; assay type: cell-based; conditions: Dengue virus, Vero C1008; Simian Vero E6 cells; FLAVI virus family
TBEV [3] = assay: microbe, parasite or virus in culture; assay type: cell-based; conditions: Tick-borne encephalitis virus, Vero C1008, read-out: IC50 TBEV
ZIKV = assay: Virus yield reduction assay, ZIKV in Vero E6 cells; assay type: cell-based; conditions: Zika virus, Vero C1008; Simian Vero E6 cells; FLAVI virus family
VEEV [4] = assay: microbe, parasite or virus in culture; assay type: cell-based; conditions: Venezuelan equine encephalitis virus, Vero C1008, read-out: IC50 VEEV
RVFV [5] = assay: microbe, parasite or virus in culture; assay type: cell-based; conditions: Rift Valley fever virus, L929, in Mus musculus, read-out: IC50 RVFV
TBEV [6] = assay: microbe, parasite or virus in culture; assay type: cell-based; conditions: Tick-borne encephalitis virus, L929, in Mus musculus, read-out: IC50 TBEV
VEEV [7] = assay: microbe, parasite or virus in culture; assay type: cell-based; conditions: Venezuelan equine encephalitis virus, L929, in Mus musculus, read-out: IC50 VEEV
RVFV [8] = assay: microbe, parasite or virus in culture; assay type: cell-based; conditions: Rift Valley fever virus, BHK-21, in Mesocricetus auratus, read-out: IC50 RVFV
YFV [9] = assay: microbe, parasite or virus in culture; assay type: cell-based; conditions: Yellow fever virus, BHK-21, in Mesocricetus auratus, read-out: IC50 YFV
RVFV [10] = assay: microbe, parasite or virus in culture; assay type: cell-based; conditions: Rift Valley fever virus, SW13, read-out: IC50 RVFV
TBEV [11] = assay: microbe, parasite or virus in culture; assay type: cell-based; conditions: Tick-borne encephalitis virus, SW13, read-out: IC50 TBEV
VEEV [12] = assay: microbe, parasite or virus in culture; assay type: cell-based; conditions: Venezuelan equine encephalitis virus, SW13, read-out: IC50 VEEV
RVFV [13] = assay: microbe, parasite or virus in culture; assay type: cell-based; conditions: Rift Valley fever virus, HEK293, read-out: IC50 RVFV
TBEV [14] = assay: microbe, parasite or virus in culture; assay type: cell-based; conditions: Tick-borne encephalitis virus, HEK293, read-out: IC50 TBEV
VEEV [15] = assay: microbe, parasite or virus in culture; assay type: cell-based; conditions: Venezuelan equine encephalitis virus, HEK293, read-out: IC50 VEEV
Plasma stability = conditions: 1 μm, 37° C., mouse plasma diluted with 1 volume of PBS pH 7.4
Solubility in PBS pH 7.4 = conditions: PBS pH 7.4, 20 °C, pH 7.4, aqueous buffer
[16] = Log D (PBS pH 7.4/octanol)
[17] = Hepatic microsome stability; conditions: 1 μm, 37° C., 0.5 mg/mL microsomes of mouse liver; cofactor: NADPH
[18] = Cytotoxicity assay, L929 cells; conditions: mouse
[19] = Cytotoxicity assay, SW13 cells; conditions: human
[20] = Cytotoxicity assay, BHK-21 cells; conditions: hamster, BHK-21 cells, CC50, Hamster BHK-21 cells; value repeated under each virus
[21] = Cytotoxicity assay (CellTiter-Blue), Vero E6 cells; conditions: for CC50 at 4 days: monkey (simian), Vero E6 cells, CC50, Simian Vero E6 cells, value repeated under each virus; for CC50: cell line not given
Vero E6 cells = assay: Cytotoxicity assay (CellTiter-Blue), Vero E6 cells; conditions: Simian Vero E6 cells; value repeated under each virus
VEEV [22] = assay: microbe, parasite or virus in culture; assay type: cell-based; conditions: Venezuelan equine encephalitis virus, BHK-21, in Mesocricetus auratus, read-out: IC50 VEEV
Plasma protein binding = conditions: mouse, plasma diluted with 1 volume of PBS pH 7.4, pH 7.4
[23] = Cytotoxicity assay (CellTiter-Blue), HEK-293 cells; conditions: human
[24] = Hydrolysis study in mouse liver extract; conditions: FIG. 1, FIG. 2
[25] = Metabolic stability in S9 fraction
[26] = Toscana virus, Vero C1008, read-out: IC50 (TOSV)

Compound	IC50 (TOSV; [26])	IC50 (HAZV)	IC50 (TAHV)	IC50 (RVFV [1])	IC50 (TBEV [3])	IC50 (VEEV [4])	IC50 (TBEV [6])	IC50 (VEEV [7])	CC50 [18]	CC50 at 4 days [21]	CC50 [21]	further results
CCCCCc1ccc(C#Cc2ccc(NC(=O)CC)c(C(=O)O)c2)cc1 [Example 8, 5-((4-pentylphenyl)ethynyl)-2-propionamidobenzoic acid]	10 nM	8 nM	10 nM	6 nM	70 nM	7 nM	1.5 nM	3 nM	5000 nM	8000 nM	–	IC50 (YFV [2]): 6 nM; IC50 (DENV): 5 nM; IC50 (ZIKV): 9 nM; IC50 (RVFV [5]): 2 nM; IC50 (RVFV [8]): 16 nM; IC50 (YFV [9]): 22 nM; IC50 (RVFV [10]): 8 nM; IC50 (TBEV [11]): 13 nM; IC50 (VEEV [12]): 13 nM; IC50 (RVFV [13]): 1.5 nM; IC50 (TBEV [14]): 3.1 nM; IC50 (VEEV [15]): 1.5 nM; Plasma stability [% remaining at 2 h] (Plasma stability): 114 ± 5 % remaining at 2 h; solubility (Solubility in PBS pH 7.4): 18 ± 6 µM (≈ 6.54 µg/mL); logD [16]: 4.6 ± 0.3; Hepatic microsome stability [% remaining at 1 h] [17]: 70 ± 3 % remaining at 1 h; CC50 [19]: 20000 nM; CC50 [20]: 7500 nM
O=C(O)c1ccccc1Nc1ccc(Cc2ccccc2)cc1 [Example 5]	325 nM	360 nM	450 nM	–	–	–	–	> 1000 nM	60000 nM	44000 nM	–	CC50 (Vero E6 cells): 77500 nM
O=C(COc1ccccc1Cc1ccccc1)Nc1ccc2c(c1C(=O)O)OC(F)(F)O2 [Example 17]	6000 nM	–	–	–	–	–	–	–	–	–	32000 nM	–
Cc1ccc(NC(=O)COc2ccccc2Cc2ccccc2)c(C(=O)O)c1 [Example 1]	90 nM	50 nM	170 nM	90 nM	220 nM	70 nM	80 nM	–	60000 nM	60000 ± 15000 nM	–	IC50 (YFV [2]): 200 nM; IC50 (DENV): 190 nM; IC50 (RVFV [5]): 40 nM; IC50 (RVFV [8]): 700 ± 30 nM; IC50 (VEEV [22]): 360 nM; IC50 (RVFV [10]): 280 nM; IC50 (TBEV [11]): 670 nM; IC50 (VEEV [12]): 100 nM; IC50 (RVFV [13]): 40 ± 20 nM; Plasma stability [% remaining at 2 h] (Plasma stability): 75 ± 0 % remaining at 2 h; fraction unbound at 1 μM (Plasma protein binding): 0.01; solubility (Solubility in PBS pH 7.4): 167 ± 7 µM (≈ 62.7 µg/mL); logD [16]: 2.62 ± 0.03; CC50 [19]: 60000 nM; CC50 [20]: 140000 nM; CC50 at 3 days [23]: 80000 nM
CCC(C)c1ccccc1OCCCC(=O)Nc1ccccc1C(=O)O (racemic) [Example 3]	70 ± 10 nM	110 nM	40 nM	160 nM	80 nM	30 nM	300 nM	600 nM	–	18500 ± 1500 nM	–	IC50 (YFV [2]): 110 nM; IC50 (DENV): 110 nM; IC50 (ZIKV): 110 nM; IC50 (RVFV [5]): 170 nM; IC50 (RVFV [10]): 50 nM; IC50 (TBEV [11]): 100 nM; IC50 (VEEV [12]): 130 nM; IC50 (RVFV [13]): 15 nM; IC50 (VEEV [15]): 50 nM; Plasma stability [% remaining at 2 h] (Plasma stability): 85 ± 4 % remaining at 2 h; fraction unbound at 1 μM (Plasma protein binding): 0.01; solubility (Solubility in PBS pH 7.4): 1540 ± 50 µM (≈ 547 µg/mL); logD [16]: 2.59 ± 0.03; Hydrolysis in mouse liver extract (amide bond stability) [24]: cleavage of the amide bond
CCC(C)c1ccccc1OCCOC(=O)Nc1ccccc1C(=O)O (stereo not drawn) [Example 12]	190 nM	–	–	–	–	–	–	–	–	–	51000 nM	Metabolic stability in a S9 fraction (rat) [25]: high metabolic stability
CC(C)c1ccccc1SCC(=O)Nc1ccccc1C(=O)O [Example 2]	550 ± 50 nM	700 ± 200 nM	270 nM	~2000 nM	–	–	–	–	–	110000 ± 10000 nM	–	IC50 (YFV [2]): 700 ± 200 nM; IC50 (RVFV [10]): 500 nM; IC50 (TBEV [11]): 930 nM; IC50 (VEEV [12]): 1500 nM; IC50 (RVFV [13]): 400 nM; IC50 (VEEV [15]): 450 nM
CCC(C)c1ccccc1OCCCC(=O)Nc1cnccc1C(=O)O (stereo not drawn) [Example 15]	~500 nM	–	–	–	–	–	–	–	–	–	> 25000 nM	–
CCC(C)(C)c1ccccc1OCCOC(=O)Nc1ccccc1C(=O)O [Example 13]	128 nM	–	–	–	–	–	–	–	–	–	> 25000 nM	Metabolic stability in a S9 fraction (rat) [25]: high metabolic stability
COc1ccc(Nc2ccc(Oc3ccccc3)cc2)c(C(=O)O)c1 [Example 4]	80 nM	120 nM	100 nM	20 nM	120 nM	60 nM	160 nM	220 nM	70000 nM	71000 ± 1000 nM	–	IC50 (YFV [2]): 220 nM; IC50 (DENV): 180 nM; IC50 (RVFV [8]): 850 nM; IC50 (VEEV [22]): 1300 nM; IC50 (RVFV [10]): 130 nM; IC50 (TBEV [11]): 380 nM; IC50 (VEEV [12]): 220 nM; CC50 [19]: 75000 nM; CC50 [20]: 125000 nM; CC50 (Vero E6 cells): 37900 nM; CC50 at 3 days [23]: 125000 nM
CCc1nc2cc(-c3ccc(-c4ccccc4)cc3)cc(C(=O)O)c2[nH]1 [Example 19]	118 nM	–	–	–	–	–	–	–	–	–	8000 nM	–
CCC(=O)Nc1ccc(-c2ccc(-c3ccccc3)cc2)cc1C(=O)O [Example 6]	120 nM	120 nM	–	140 nM	120 ± 10 nM	120 nM	9 nM	9 nM	15000 nM	10000 nM	–	IC50 (RVFV [5]): 3 nM; IC50 (RVFV [8]): > 200 nM; IC50 (YFV [9]): > 200 nM; IC50 (VEEV [15]): 19 nM; Plasma stability [% remaining at 2 h] (Plasma stability): 94 ± 6 % remaining at 2 h; solubility (Solubility in PBS pH 7.4): 61 ± 17 µM (≈ 21.1 µg/mL); logD [16]: 3.07 ± 0.05; Hepatic microsome stability [% remaining at 1 h] [17]: 49 ± 0 % remaining at 1 h; Hydrolysis in mouse liver extract (amide bond stability) [24]: more stable
CCC(C)c1ccccc1OCC(=O)Nc1ccc2c(c1C(=O)O)OC(F)(F)O2 (stereo not drawn) [Example 16]	4000 nM	–	–	–	–	–	–	–	–	–	37000 nM	–
O=C(O)c1ccccc1NC(=O)n1ccc2ccccc21 [Example 14]	9000 nM	–	–	–	–	–	–	–	–	–	40000 nM	–
CCC(=O)Nc1ccc(-c2ccc(-c3ccccc3)c(F)c2)cc1C(=O)O [Example 7]	110 nM	70 nM	120 nM	120 nM	13 nM	120 nM	4 nM	7 nM	9000 nM	15000 nM	–	IC50 (RVFV [5]): 5.5 nM; IC50 (VEEV [15]): 14 nM
CS(N)(=O)=O [methyl sulfonamide]	–	–	–	–	–	–	–	–	–	–	–	IC50 (TOSV; read-out: IC50 (TOSV)): 1500 nM
Cc1ccc2nc(COc3ccc(Cl)cc3Cc3ccccc3)oc(=O)c2c1 [Example 21]	800 nM	–	–	–	–	–	–	–	–	–	> 100000 nM	–
CCC(C)c1ccccc1OCCCc1nc2ccc(F)cc2c(=O)o1 (stereo not drawn) [Example 22]	300 nM	–	–	–	–	–	–	–	–	–	17000 nM	–
CCC(C)c1ccccc1OCc1nc2ccc(C)cc2c(=O)o1 (stereo not drawn) [Example 20]	600 nM	–	–	–	–	–	–	–	–	–	75000 nM	–
